Measured values published in ChEMBL document CHEMBL1153119, “Design and synthesis of orally-active and selective azaindane 5HT2c agonist for the treatment of obesity” (Bioorg Med Chem Lett, 2010).
Blank lines part the entries; values can stand above or below the molecule they belong to. Calls of active or inactive are those of the source. The rule behind the calls is not given here.

Columns and labels:
[1] = target: T1, 5-hydroxytryptamine receptor 2C (Homo sapiens, UniProt P28335); assay: Antagonist activity against human 5HT2C receptor by FLIPR assay; assay type: functional
T1 sequence (P28335 whole entry): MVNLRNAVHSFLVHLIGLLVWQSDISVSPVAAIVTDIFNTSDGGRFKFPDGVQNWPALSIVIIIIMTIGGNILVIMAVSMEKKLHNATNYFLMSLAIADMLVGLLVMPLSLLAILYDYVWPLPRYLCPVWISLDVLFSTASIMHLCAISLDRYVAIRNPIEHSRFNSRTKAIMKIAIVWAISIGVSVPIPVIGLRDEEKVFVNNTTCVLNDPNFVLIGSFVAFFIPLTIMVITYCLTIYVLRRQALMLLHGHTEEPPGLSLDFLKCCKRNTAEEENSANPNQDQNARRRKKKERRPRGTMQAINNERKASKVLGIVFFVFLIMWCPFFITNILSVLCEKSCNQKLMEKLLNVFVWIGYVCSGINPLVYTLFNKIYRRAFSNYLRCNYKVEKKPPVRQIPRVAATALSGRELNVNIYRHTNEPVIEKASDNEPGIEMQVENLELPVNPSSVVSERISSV

[2] = target: T2, 5-hydroxytryptamine receptor 2C (Homo sapiens) (UniProt P28335); assay: Agonist activity against human 5HT2C receptor by FLIPR assay
T2 sequence (whole entry): T1 sequence (P28335 whole entry)

[3] = target: T3, 5-hydroxytryptamine receptor 2B (Homo sapiens, UniProt P41595); assay: Displacement of [125I]DOI from human 5HT2B receptor expressed in CHO cells; assay type: cell-based
[4] = target: T1, 5-hydroxytryptamine receptor 2C; assay: Agonist activity against human 5HT2C receptor by FLIPR assay; assay type: functional
[5] = target: T3, 5-hydroxytryptamine receptor 2B; assay: Agonist activity against human 5HT2B receptor by FLIPR assay; assay type: functional
[6] = target: T4, 5-hydroxytryptamine receptor 2A (Homo sapiens, UniProt P28223); assay: Agonist activity against human 5HT2A receptor by FLIPR assay; assay type: functional
[7] = target: 5-hydroxytryptamine receptor 2A (Rattus norvegicus, UniProt P14842); assay: Displacement of [125I]DOI from rat 5HT2A receptor expressed in mouse 3T3 cells; assay type: cell-based, NIH3T3
[8] = target: T4, 5-hydroxytryptamine receptor 2A; assay: Agonist activity against human 5HT2A receptor by FLIPR assay relative to 5HT; assay type: functional
[9] = target: T1, 5-hydroxytryptamine receptor 2C; assay: Displacement of [3H]5HT from human 5HT2C receptor expressed in mouse 3T3 cells by scintillation counting; assay type: cell-based, NIH3T3
[10] = target: T3, 5-hydroxytryptamine receptor 2B; assay: Agonist activity against human 5HT2B receptor by FLIPR assay relative to 5HT; assay type: functional
[11] = Intrinsic clearance in rat microsomes at 0.3 mM; assay type: ADME, Microsome
[12] = Intrinsic clearance in monkey hepatocyte at 1 mM; assay type: ADME, tissue-based, Macaca mulatta, Liver; settings: rhesus monkey, hepatocytes
[13] = Ratio of drug uptake in CSF to free plasma in rat; assay type: ADME, organism-based; settings: in vivo
[14] = target: T4, 5-hydroxytryptamine receptor 2A; assay: Agonist activity against 5HT2A receptor assessed as inositol phosphate accumulation; assay type: functional
[15] = target: T4, 5-hydroxytryptamine receptor 2A; assay: Antagonist activity against 5HT2A receptor; assay type: functional
[16] = Half life in human hepatocyte at 1 mM; assay type: ADME, cell-based, Liver; settings: hepatocytes
[17] = target: T2, 5-hydroxytryptamine receptor 2C (Homo sapiens); assay: Agonist activity against human 5HT2C receptor by GTPgammaS binding relative to control; assay type: functional
[18] = Half life in rat microsomes at 0.3 mM; assay type: ADME, Microsome
[19] = target: T2, 5-hydroxytryptamine receptor 2C (Homo sapiens); assay: Agonist activity against human 5HT2C receptor assessed as inositol phosphate accumulation; assay type: functional
[20] = Half life in monkey microsomes at 0.3 mM; assay type: ADME, Macaca mulatta, Microsome; settings: rhesus monkey
[21] = target: T3, 5-hydroxytryptamine receptor 2B; assay: Agonist activity against 5HT2B receptor assessed as inositol phosphate accumulation; assay type: functional
[22] = target: T2, 5-hydroxytryptamine receptor 2C (Homo sapiens); assay: Antagonist activity against 5HT2c receptor; assay type: functional
[23] = Clearance in monkey; assay type: ADME, organism-based, Macaca mulatta; settings: rhesus monkey, in vivo
[24] = Half life in monkey hepatocyte at 1 mM; assay type: ADME, Macaca mulatta, Liver; settings: rhesus monkey, hepatocytes
[25] = target: T3, 5-hydroxytryptamine receptor 2B; assay: Antagonist activity against 5HT2B receptor; assay type: functional
[26] = Half life in human microsomes at 0.3 mM; assay type: ADME, Microsome
[27] = Ratio of drug uptake in CSF to plasma in rat; assay type: ADME
[28] = Half life in dog hepatocyte at 1 mM; assay type: ADME, Canis lupus familiaris, Liver; settings: hepatocytes
[29] = Intrinsic clearance in rat hepatocyte at 1 mM; assay type: ADME, cell-based, Liver; settings: hepatocytes
[30] = Intrinsic clearance in monkey microsomes at 0.3 mM; assay type: ADME, Macaca mulatta, Microsome; settings: rhesus monkey
[31] = Half life in dog microsomes at 0.3 mM; assay type: ADME, Canis lupus familiaris, Microsome
[32] = Intrinsic clearance in dog hepatocyte at 1 mM; assay type: ADME, tissue-based, Canis lupus familiaris, Liver; settings: hepatocytes
[33] = Half life in rat hepatocyte at 1 mM; assay type: ADME, cell-based, Liver; settings: hepatocytes
[34] = Intrinsic clearance in human hepatocyte at 1 mM; assay type: ADME, cell-based, Liver; settings: hepatocytes
[35] = Ratio of drug uptake in brain to plasma in rat; assay type: ADME, organism-based; settings: in vivo
[36] = Clearance in rat; assay type: ADME, organism-based; settings: in vivo
[37] = target: Voltage-gated inwardly rectifying potassium channel KCNH2 (Homo sapiens, UniProt Q12809); assay: Inhibition of human ERG channel
[38] = Clearance in dog; assay type: ADME, organism-based, Canis lupus familiaris; settings: in vivo
[39] = Intrinsic clearance in human microsomes at 0.3 mM; assay type: ADME, Microsome
[40] = test system: Rattus norvegicus; assay: Antiobesity activity in Sprague-Dawley rat model assessed as reduction in food intake at 100 mg/kg, po after 2 hrs; assay type: functional; set-up: scale not given: the % may be the effect or the level left
[41] = target: T1, 5-hydroxytryptamine receptor 2C; assay: Agonist activity against human 5HT2C receptor by GTPgammaS binding; assay type: functional
[42] = Intrinsic clearance in dog microsomes at 0.3 mM; assay type: ADME, Canis lupus familiaris, Liver, Microsome

T4 sequence (P28223 whole entry): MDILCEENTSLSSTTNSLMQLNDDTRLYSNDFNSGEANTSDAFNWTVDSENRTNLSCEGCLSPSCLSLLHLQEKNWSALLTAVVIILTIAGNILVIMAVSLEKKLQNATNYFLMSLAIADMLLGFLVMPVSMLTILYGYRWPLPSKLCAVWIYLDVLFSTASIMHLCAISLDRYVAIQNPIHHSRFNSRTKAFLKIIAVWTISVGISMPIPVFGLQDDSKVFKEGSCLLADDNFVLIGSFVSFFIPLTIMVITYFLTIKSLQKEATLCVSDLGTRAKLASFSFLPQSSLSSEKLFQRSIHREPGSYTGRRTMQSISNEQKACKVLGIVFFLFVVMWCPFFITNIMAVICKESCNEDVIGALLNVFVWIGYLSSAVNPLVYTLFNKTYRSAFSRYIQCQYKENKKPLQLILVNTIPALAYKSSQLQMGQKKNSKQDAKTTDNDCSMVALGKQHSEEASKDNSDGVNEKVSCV
Sequence of 5-hydroxytryptamine receptor 2A (Rattus norvegicus, UniProt P14842) (P14842 whole entry): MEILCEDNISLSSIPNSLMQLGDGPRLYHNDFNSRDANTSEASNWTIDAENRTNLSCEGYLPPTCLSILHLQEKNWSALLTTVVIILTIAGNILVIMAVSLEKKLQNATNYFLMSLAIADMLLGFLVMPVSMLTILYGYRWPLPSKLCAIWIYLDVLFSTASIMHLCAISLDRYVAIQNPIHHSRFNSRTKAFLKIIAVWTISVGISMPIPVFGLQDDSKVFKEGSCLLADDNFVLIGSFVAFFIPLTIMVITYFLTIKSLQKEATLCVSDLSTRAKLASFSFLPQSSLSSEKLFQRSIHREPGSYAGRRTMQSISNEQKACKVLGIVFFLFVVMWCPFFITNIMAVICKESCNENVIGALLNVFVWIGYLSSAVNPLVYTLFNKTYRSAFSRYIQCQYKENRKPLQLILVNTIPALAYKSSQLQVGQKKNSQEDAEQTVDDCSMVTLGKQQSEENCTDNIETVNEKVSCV
T3 sequence (P41595 whole entry): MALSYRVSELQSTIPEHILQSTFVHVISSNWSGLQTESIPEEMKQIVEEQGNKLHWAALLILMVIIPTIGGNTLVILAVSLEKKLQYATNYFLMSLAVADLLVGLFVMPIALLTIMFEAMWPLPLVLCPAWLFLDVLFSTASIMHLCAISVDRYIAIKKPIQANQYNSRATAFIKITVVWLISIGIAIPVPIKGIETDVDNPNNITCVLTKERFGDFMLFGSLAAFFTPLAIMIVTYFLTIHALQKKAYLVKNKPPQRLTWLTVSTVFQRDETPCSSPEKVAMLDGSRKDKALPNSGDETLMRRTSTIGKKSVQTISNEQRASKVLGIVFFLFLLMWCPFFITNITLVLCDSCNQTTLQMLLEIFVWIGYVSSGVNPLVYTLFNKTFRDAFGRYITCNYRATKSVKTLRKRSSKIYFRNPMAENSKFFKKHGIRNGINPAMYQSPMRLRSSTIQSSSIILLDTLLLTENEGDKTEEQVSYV
Sequence of Voltage-gated inwardly rectifying potassium channel KCNH2 (Q12809 whole entry): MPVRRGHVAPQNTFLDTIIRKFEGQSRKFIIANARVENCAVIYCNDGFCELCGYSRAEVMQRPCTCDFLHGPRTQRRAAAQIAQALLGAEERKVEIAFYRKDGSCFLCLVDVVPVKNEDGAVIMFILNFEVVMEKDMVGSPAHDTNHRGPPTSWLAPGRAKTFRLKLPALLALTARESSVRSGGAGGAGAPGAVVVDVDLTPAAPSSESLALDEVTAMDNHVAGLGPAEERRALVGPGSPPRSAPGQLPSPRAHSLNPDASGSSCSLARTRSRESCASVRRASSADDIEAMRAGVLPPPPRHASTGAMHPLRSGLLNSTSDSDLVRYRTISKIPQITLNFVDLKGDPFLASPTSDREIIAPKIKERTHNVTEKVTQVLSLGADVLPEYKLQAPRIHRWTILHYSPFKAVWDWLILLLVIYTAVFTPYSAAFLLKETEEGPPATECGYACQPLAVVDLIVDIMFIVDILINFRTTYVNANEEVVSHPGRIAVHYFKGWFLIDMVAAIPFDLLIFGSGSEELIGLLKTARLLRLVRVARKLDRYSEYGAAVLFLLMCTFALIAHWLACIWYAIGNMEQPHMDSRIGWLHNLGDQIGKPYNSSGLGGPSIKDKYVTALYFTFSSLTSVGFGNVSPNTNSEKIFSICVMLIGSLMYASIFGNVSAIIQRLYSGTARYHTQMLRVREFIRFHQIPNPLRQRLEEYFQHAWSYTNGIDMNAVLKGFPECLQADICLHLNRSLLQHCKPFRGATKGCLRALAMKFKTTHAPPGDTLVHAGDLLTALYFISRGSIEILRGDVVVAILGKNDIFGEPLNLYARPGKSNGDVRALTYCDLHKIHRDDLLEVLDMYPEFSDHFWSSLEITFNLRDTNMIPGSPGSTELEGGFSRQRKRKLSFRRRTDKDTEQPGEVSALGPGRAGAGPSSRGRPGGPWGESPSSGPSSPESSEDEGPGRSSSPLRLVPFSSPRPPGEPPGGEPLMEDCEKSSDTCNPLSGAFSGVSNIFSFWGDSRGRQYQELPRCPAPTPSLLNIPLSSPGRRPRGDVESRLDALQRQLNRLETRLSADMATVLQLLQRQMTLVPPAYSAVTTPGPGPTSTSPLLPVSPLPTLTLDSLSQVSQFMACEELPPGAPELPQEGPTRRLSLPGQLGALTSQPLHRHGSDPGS

SMILES: c1ccc2c(N3CCNCC3)nccc2c1
- IC50 [1]: 24 nM

- Activity [2]: 31%
SMILES: c1ccc2c(c1)sc1c(N3CCNCC3)ncnc12

SMILES: Clc1ccccc1O[C@H]1CCCc2ccc(N3CCNCC3)nc21
- Ki ([3]; cho): Not Active
- EC50 [4]: 10 nM
- EC50 [5]: 397 nM
- EC50 [6]: 70 nM
- Activity [2]: 97%
- Ki [7]: 0.7 nM
- Activity [8]: 93%

- EC50 [4]: 2600 nM
- Activity [2]: 43%
SMILES: Clc1cccc(COc2nc(N3CCNCC3)nc3ccsc23)c1

SMILES: c1cc2sccc2c(N2CCNCC2)n1
- EC50 [4]: 187 nM
- Activity [2]: 60%

SMILES: Brc1cn2ccnc2c(N2CCNCC2)n1
- EC50 [4]: 1360 nM
- Activity [2]: 79%

SMILES: C[C@@H]1CNCCN1c1ccc2c(n1)[C@@H](OCc1cc(F)ccc1F)CC2
- Ki ([3]; read-out: Ki): 83 nM
- EC50 [4]: 1 nM
- EC50 [6]: 1430 nM
- Activity [2]: 96%
- Ki [7]: 16 nM
- Activity [8]: 18%

- IC50 [1]: 126 nM
SMILES: Cc1csc2c(OCc3cccc(Cl)c3)nc(N3CCNCC3)nc12

SMILES: Clc1nc(N2CCNCC2)nc2sccc12
- EC50 [4]: 616 nM
- Activity [2]: 69%

SMILES: c1nc(N2CCNCC2)c2ccsc2n1
- EC50 [4]: 530 nM
- Activity [2]: 74%

SMILES: c1nc(N2CCNCC2)c2cc[nH]c2n1
- EC50 [4]: 755 nM
- Activity [2]: 91%

SMILES: Fc1cccc(O[C@H]2CCc3ccc(N4CCNCC4)nc32)c1
- Ki [9]: 3 nM

- IC50 [1]: 710 nM
SMILES: Clc1nc(N2CCNCC2)c2c3c(sc2n1)CCCC3

SMILES: Cn1cnc2nc(OCc3ccccc3)nc(N3CCNCC3)c21
- IC50 [1]: > 500 nM

SMILES: c1nc(N2CCNCC2)c2sccc2n1
- EC50 [4]: 400 nM
- Activity [2]: 81%

SMILES: Fc1ccc(F)c(CO[C@H]2CCc3ccc(N4CCNCC4)nc32)c1
- Ki ([3]; read-out: Ki): 153 nM
- EC50 [4]: 1.4 nM
- EC50 [5]: 2700 nM
- EC50 [6]: 1500 nM
- Activity [2]: 91%
- Activity [10]: 18%
- Ki [7]: 15 nM
- Activity [8]: 13%

- IC50 [1]: 540 nM
SMILES: Clc1nc(N2CCNCC2)c2scc(-c3ccccc3)c2n1

SMILES: Clc1ccccc1OC1CCc2ccc(N3CCNCC3)nc21 (stereo not given)
- Ki ([3]; cho): Not Active
- EC50 [4]: 0.1 nM
- EC50 [5]: 187 nM
- EC50 [6]: 236 nM
- Activity [2]: 93%
- Activity [10]: 50%
- Ki [7]: 3.8 nM
- Activity [8]: 75%

SMILES: Clc1ccccc1O[C@H]1CCc2ccc(N3CCNCC3)nc21
- Ki ([3]; cho): Not Active
- EC50 [4]: 0.1 nM
- EC50 [5]: 300 nM
- EC50 [6]: 87 nM
- Activity [2]: 92%
- Activity [10]: 58%
- Ki [7]: 1 nM
- Activity [8]: 87%

SMILES: Clc1ccccc1O[C@@H]1CCc2ccc(N3CCNCC3)nc21
- Ki ([3]; cho): Not Active
- EC50 [4]: 22 nM
- EC50 [5]: 748 nM
- EC50 [6]: 1310 nM
- Activity [2]: 97%
- Activity [10]: 21%
- Ki [7]: 41 nM
- Activity [8]: 46%

SMILES: Clc1ccccc1O[C@@H]1CCCc2ccc(N3CCNCC3)nc21
- Ki ([3]; cho): Not Active
- EC50 [4]: 120 nM
- EC50 [5]: 998 nM
- EC50 [6]: 578 nM
- Activity [2]: 95%
- Ki [7]: 2 nM
- Activity [8]: 76%

- Ki [9]: 0.6 nM
SMILES: C[C@@H]1CNCCN1c1ccc2c(n1)[C@@H](Oc1ccccc1Cl)CC2

SMILES: CCCn1cnc2c(N3CCNCC3)ncnc21
- EC50 [4]: 1250 nM
- Activity [2]: 55%

- IC50 [1]: 410 nM
SMILES: Clc1cccc(COc2nc(N3CCNCC3)nc3nc[nH]c23)c1

SMILES: COc1nc(N2CCNCC2)nc2c1CCCC2
- EC50 [4]: 5000 nM
- Activity [2]: 53%

- EC50 [4]: 1200 nM
- Activity [2]: 53%
SMILES: Clc1cccc(COc2nc(N3CCNCC3)nc3sccc23)c1

SMILES: c1cc2c(nc1N1CCNCC1)CCCC2
- Ki ([3]; cho): Not Active
- EC50 [4]: 25 nM
- EC50 [6]: 2200 nM
- Activity [2]: 93%
- Activity [10]: Active
- Ki [7]: 21 nM
- Activity [8]: 60%

SMILES: Cc1ccc(F)cc1CO[C@H]1CCc2ccc(N3CCNC[C@H]3C)nc21
- CLint scaled [11]: 1500 mL/min/kg
- CLint scaled [12]: 43 mL/min/kg
- ratio [13]: 0.5
- Activity [14]: inactive
- EC50 [4]: 3.4 nM
- Kb [15]: 62 nM
- half-life [16]: 170 min
- Activity [17]: 86%
- half-life [18]: 2.2 min
- Activity [19]: inactive
- IC50 [1]: ≤ 86 nM
- EC50 [5]: 566 nM
- EC50 [6]: 630 nM
- half-life [20]: 12 min
- EC50 [21]: > 10000 nM
- Kb [22]: inactive
- clearance [23]: 8.6 mL/min/kg
- half-life [24]: 53 min
- Emax [10]: 28%
- Kb [25]: 4 nM
- half-life [26]: 44 min
- Kp [27]: 0.015
- half-life [28]: 64 min
- CLint scaled [29]: 400 mL/min/kg
- CLint scaled [30]: 350 mL/min/kg
- half-life [31]: 24 min
- Ki [7]: 4.4 nM
- CLint scaled [32]: 41 mL/min/kg
- half-life [33]: 4.7 min
- CLint scaled [34]: 5.1 mL/min/kg
- ratio [35]: 3.4
- clearance [36]: 90 mL/min/kg
- IC50 [37]: 3900 nM
- clearance [38]: 34 mL/min/kg
- CLint scaled [39]: 20 mL/min/kg
- Activity [40]: -74%
- EC50 [41]: 1.9 nM
- CLint scaled [42]: 59 mL/min/kg

SMILES: c1cc2occc2c(N2CCNCC2)n1
- EC50 [4]: 164 nM
- Activity [2]: 67%

SMILES: Cc1cc2c(N3CCNCC3)ncnc2o1
- EC50 [4]: 660 nM
- Activity [2]: 45%
